One test has as its target T1, yeast OLE1 (Saccharomyces cerevisiae, UniProt P21147).
T1 construct: expressed in transfected cells; host or cells: S. cerevisiae ole1Δ strain (W303 pdr1Δ pdr3Δ background), pRS316 plasmid, TDH3 promoter
T1 sequence (P21147 1-510): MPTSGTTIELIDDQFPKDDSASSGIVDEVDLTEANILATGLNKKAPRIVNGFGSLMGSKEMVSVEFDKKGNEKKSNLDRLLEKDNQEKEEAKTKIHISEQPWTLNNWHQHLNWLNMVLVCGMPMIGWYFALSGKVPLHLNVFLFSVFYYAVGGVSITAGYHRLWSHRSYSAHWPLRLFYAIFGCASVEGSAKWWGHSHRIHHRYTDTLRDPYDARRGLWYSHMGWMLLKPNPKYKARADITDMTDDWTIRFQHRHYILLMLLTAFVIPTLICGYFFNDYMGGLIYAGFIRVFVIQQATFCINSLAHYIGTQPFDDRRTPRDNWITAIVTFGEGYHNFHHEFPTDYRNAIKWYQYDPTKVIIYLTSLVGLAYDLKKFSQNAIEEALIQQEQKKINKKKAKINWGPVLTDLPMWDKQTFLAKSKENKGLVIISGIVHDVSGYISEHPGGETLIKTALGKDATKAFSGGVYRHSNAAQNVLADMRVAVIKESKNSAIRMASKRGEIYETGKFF
The test is described as follows: Growth of yeast surviving solely on yeast OLE1. It counts as cell-based. To be noted: percent of DMSO-treated condition. The text has this: (§1) To generate yeast strains expressing SCD1 or SCD5 as the sole desaturase, the human SCD1 and SCD5 genes were cloned from cDNAs (Harvard PlasmID database Clone ID HsCD00340237 for SCD1 and HsCD00342695 for SCD5) into yeast plasmid pRS316 (ATCC 77145) between the yeast TDH3 promoter and the CYC1 terminator. The coding sequence of yeast OLE1 was also cloned into this plasmid). These clones were then transformed into the ole1Δ strain and plated on CSM-Ura media (CSM lacking uracil) with 2% glucose (w/v) and independent colonies were isolated and amplified.
(§2) All compound profiling experiments were performed using the same basic protocol. Different genetic backgrounds (e.g., gene deletions) or conditions (e.g., addition of oleic and palmitoleic acid) were replaced as indicated below.
(§3) Compound stocks (10 mM in 100% DMSO) were arrayed into 384 round well, v-bottom polypropylene plates and diluted according to indicated dilution factors. Compound administration was performed in two separate steps. First, 15 μL of CSM-Galactose (induces expression of toxic protein) was dispensed into clear 384 well assay plates using a MULTIDROP™ Combi reagent dispenser. The diluted compound stock plates were then applied to the assay plates using an automated workstation (Perkin Elmer JANUS™) outfitted with a 384 pin tool containing slotted pins that deliver 100 nL of compound. The cultures described above were then diluted to a 2× concentration (0.03 and 0.08 for alpha-synuclein and ApoE, final OD600 of 0.015 and 0.04) in CSM-Galactose. For wild-type and Ole1/SCD1/SCD5 plasmid-containing strains, the 2× cell density was 0.02. In all experiments, 15 μL culture was then dispensed into the pinned assay plate to achieve 30 μL of the 1×OD600 culture and a top drug concentration of […]. For 96-well assays (FIGS. 2A and 2B), compound dilutions in DMSO were generated in 96 well plates and 1 μL was manually pipetted into 96 well clear bottom assay plates.
(§4) For experiments using a plasmid-borne copy of Ole1, SCD1, or SCD5 (FIGS. 4B, 7, and 8), media lacking uracil (SX-Ura, where X is glucose, raffinose, or galactose), was used for all steps of the compound profiling protocol to ensure its maintenance throughout the assay.
(§5) After yeast delivery, assay plates were incubated under humidified conditions at 30° C. for 24 to 40 h. ApoE4 rescue experiments were stopped at 24 h, aSyn experiments at 40 h, Ole1 at 24 h, and SCD1/SCD5 at 40 h. The growth of yeast was monitored by reading the OD600 of each well using a microplate reader (Perkin Elmer EnVision™). For model rescue experiments, raw data were processed by background subtracting and calculating a fold-change relative to DMSO control [(EXP−0.035)/(DMSO−0.035)—where 0.035 is the OD600 contributed by an empty well containing 30 μL of media alone]. For growth inhibition of wild-type cells, raw data were processed by background subtracting and converting values to a percent of the nontreated condition for that strain [(EXP−0.035)/(DMSO−0.035)×100%].

The target in another test is T2, human SCD5 (Homo sapiens, UniProt Q86SK9).
T2 construct: host or cells: S. cerevisiae ole1Δ strain (W303 pdr1Δ pdr3Δ background), pRS316 plasmid, TDH3 promoter
T2 sequence (Q86SK9 1-330): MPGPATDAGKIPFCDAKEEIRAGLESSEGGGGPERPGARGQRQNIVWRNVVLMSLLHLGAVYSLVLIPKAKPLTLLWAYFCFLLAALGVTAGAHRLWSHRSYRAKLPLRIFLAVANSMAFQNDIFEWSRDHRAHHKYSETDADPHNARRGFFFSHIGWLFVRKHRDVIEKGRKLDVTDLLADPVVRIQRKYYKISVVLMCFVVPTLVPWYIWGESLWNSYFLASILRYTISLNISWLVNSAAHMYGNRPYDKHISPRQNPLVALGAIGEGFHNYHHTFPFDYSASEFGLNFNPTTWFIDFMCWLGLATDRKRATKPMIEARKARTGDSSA
The test can be described thus: Growth of humanized yeast expressing human SCD5 as sole desaturase. It counts as cell-based, Saccharomyces cerevisiae expressing Saccharomyces cerevisiae expressing Saccharomyces cerevisiae expressing Saccharomyces cerevisiae expressing Saccharomyces cerevisiae expressing human SCD5 SCD5 SCD5 SCD5 SCD5. To be noted: for half-maximal inhibitory concentration (IC50), SCD5 humanized strain: yeast growth.
Excerpt: as §1, §2, §3, §4, §5

For another test, the target named is T3, human SCD1 (Homo sapiens, UniProt O00767).
T3 construct: host or cells: S. cerevisiae ole1Δ strain (W303 pdr1Δ pdr3Δ background), pRS316 plasmid, TDH3 promoter
T3 sequence (O00767 1-359): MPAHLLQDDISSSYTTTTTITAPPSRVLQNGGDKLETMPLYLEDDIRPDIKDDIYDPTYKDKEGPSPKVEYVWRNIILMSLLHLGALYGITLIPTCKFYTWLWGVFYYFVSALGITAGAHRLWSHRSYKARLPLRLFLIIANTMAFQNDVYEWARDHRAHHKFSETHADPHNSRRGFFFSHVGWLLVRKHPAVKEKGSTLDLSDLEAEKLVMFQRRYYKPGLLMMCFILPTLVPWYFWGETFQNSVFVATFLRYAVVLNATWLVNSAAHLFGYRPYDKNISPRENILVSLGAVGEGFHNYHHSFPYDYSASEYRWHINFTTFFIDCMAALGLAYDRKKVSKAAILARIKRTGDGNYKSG
The test can be described thus: Growth of humanized yeast expressing human SCD1 as sole desaturase. It counts as cell-based, humanized yeastized yeastized yeastized yeast. To be noted: for half-maximal inhibitory concentration (IC50), SCD1 humanized strain: yeast growth. Here is the method: The coding sequence of yeast OLE1 was also cloned into this plasmid). These clones were then transformed into the ole1Δ strain and plated on CSM-Ura media (CSM lacking uracil) with 2% glucose (w/v) and independent colonies were isolated and amplified.
as §2
Compound administration was performed in two separate steps. First, 15 μL of CSM-Galactose (induces expression of toxic protein) was dispensed into clear 384 well assay plates using a MULTIDROP™ Combi reagent dispenser. […] The cultures described above were then diluted to a 2× concentration (0.03 and 0.08 for alpha-synuclein and ApoE, final OD600 of 0.015 and 0.04) in CSM-Galactose. For wild-type and Ole1/SCD1/SCD5 plasmid-containing strains, the 2× cell density was 0.02.
as §4
After yeast delivery, assay plates were incubated under humidified conditions at 30° C. for 24 to 40 h. ApoE4 rescue experiments were stopped at 24 h, aSyn experiments at 40 h, Ole1 at 24 h, and SCD1/SCD5 at 40 h. The growth of yeast was monitored by reading the OD600 of each well using a microplate reader (Perkin Elmer EnVision™).

Test [1] has as its system cellular fatty acid desaturase activity (Ole1). The test is described as follows: Quantitative lipid profiling of yeast by LC-MS/MS. The test is classed as cell-based, Saccharomyces cerevisiae. Here is the method: Overnight cultures of yeast strain W303 pdr1Δ pdr3Δ were diluted into CSM media with 2% (w/v) raffinose, OD600 0.25, and grown for 4 h before resuspending at an OD600 of 0.2 in CSM media with 2% (w/v) galactose and adding Compound 2 or DMSO at the indicated concentrations. Cells were grown for the indicated timepoints before centrifugation, washing once in PBS, and freezing pellets. Lipids were extracted from pellets by resuspending the pellets in 600 μL methanol, 300 μL water, and 400 μL chloroform, followed by cell lysis by vortexing with glass beads for 1 min. Samples were then centrifuged at 10,000×g for 10 min, and the bottom layer that formed (organic/lipids) was moved into a new tube and evaporated. Samples were then analyzed by LC/MS/MS using a Thermo Scientific Q Exactive™ Orbitrap™ coupled to a Dionex UltiMate® 3000 ultra-high performance liquid chromatography system, following the method described in Tafesse et al. PLoS Pathog. 11(10): e1005188, 2015.

Setting [2] is: percent of DMSO-treated condition.

In the case of `O=C(O)Cn1nnc(-c2cc(N3CCC(Oc4cc(F)ccc4Br)CC3)no2)n1` [MK-8245], at yeast OLE1, the “growth inhibition of yeast expressing OLE1” value is given as “resistant”. Also, the “half-maximal inhibitory concentration (IC50), SCD5 humanized strain” value at human SCD5 is “low nanomolar”.
Turning to `Cc1nnc(-c2ccc(N3CCC(Oc4ccccc4C(F)(F)F)CC3)nn2)s1` [MF-438], on yeast OLE1, the “growth inhibition of yeast expressing OLE1” value is listed as “resistant”. Further, on human SCD1, the “half-maximal inhibitory concentration (IC50), SCD1 humanized strain” value is recorded as “low nanomolar”. Also, the “half-maximal inhibitory concentration (IC50), SCD5 humanized strain” value at human SCD5 is “low nanomolar”.
Consider `C[C@@H]1C[C@@H]([C@H](O)CC2CC(=O)NC(=O)C2)C(=O)[C@@H](C)C1` [Cyclohexamide, cycloheximide], for which the “growth inhibition of yeast expressing OLE1” value at yeast OLE1 is recorded as “inhibited growth of all three strains with the same potency”. Also, the “growth inhibition of SCD1-expressing yeast” value at human SCD1 (setting [2]) is given as “inhibited growth of all three strains with the same potency”. Also, the “growth inhibition of SCD5-expressing yeast” value at human SCD5 (setting [2]) is on record as “inhibited growth of all three strains with the same potency”.
In the case of `Cc1nn(C)c2cc(-c3noc(C4CCN(C(=O)CNC(=O)c5ccccc5)CC4)n3)ccc12` [Compound 2, N-(2-(4-(3-(1,3-dimethyl-1H-indazol-6-yl)-1,2,4-oxadiazol-5-yl)piperidin-1-yl)-2-oxoethyl)benzamide], in test [1] (8 h treatment, wild-type yeast), the “decrease in abundance of unsaturated lipid phosphatidylcholine 16:1, 18:1” value was greater than 12 fold and the “increase in abundance of saturated lipid phosphatidylcholine 26:0” value is recorded as greater than 300 fold. In addition, the lipid desaturation entry in test [1] (yeast cells) is “inhibited lipid desaturation”.
Turning to `CNC(=O)c1cccc(NC(=O)N2CCC(Oc3ccccc3Cl)CC2)c1` [Compound A939572], at yeast OLE1, the “growth inhibition of yeast expressing OLE1” value was “resistant”. Moreover, at human SCD1, the “half-maximal inhibitory concentration (IC50), SCD1 humanized strain” value is listed as “low nanomolar”. The “half-maximal inhibitory concentration (IC50), SCD5 humanized strain” value at human SCD5 is reported as “low nanomolar”.
